From the NIST ThermoML archive (doi:10.1021/je100749m) come the findings set out here.

Series [1] is described as follows: Molar enthalpy of transition or fusion. Particulars: Crystal; DSC.
For series [2] the following is noted: Crystal; DTA.

± gives the expanded uncertainty stated by the source.

With `O=C(O)c1ccccc1` [benzoic acid], the “Molar enthalpy of transition or fusion” value in series [1] was 4.31 ± 0.131 kcal/mol. In series [2], the Normal melting temperature came out at 122.93 ± 0.53 °C.
For `O=C(O)CCCC(=O)O` [1,5-pentanedioic acid], the “Molar enthalpy of transition or fusion” value in series [1] turned out to be 5 ± 0.148 kcal/mol. Also, the Normal melting temperature in series [2] is 95.98 ± 0.53 °C.
For the compound `O=C(O)CCCCC(=O)O` [1,6-hexanedioic acid], the “Molar enthalpy of transition or fusion” value in series [1] was 8.46 ± 0.237 kcal/mol. For the same compound, in series [2], the Normal melting temperature was 153.16 ± 0.53 °C.
